Assay results as given in the supplement of paper PMC10627819.
In brackets after ≈: the same amount, converted by molar mass.

How the values were obtained:
S. pneumoniae D39V [1] = test system: S. pneumoniae D39V
S. aureus DSM 20231 [2] = test system: S. aureus DSM 20231
S. aureus Newman [3] = test system: S. aureus Newman
S. pneumoniae D39V [4] = assay: fitness (endpoint OD595 vs no drug) (fraction); higher = more growth
Outline: (§1)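 Bacterial fitness was scored as optical density at the stationary-phase transition relative to the robust mean of no-drug control wells. Scores are capped at 1. The growth data were OD595 readings every 30 min for 14 h at 37 °C, background-subtracted against the first reading, from 384-well plates inoculated at OD595 0.01 in TSB, LB Lennox or CY.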

S. aureus DSM 20231 [5] = assay: as above
Outline: as §1

B. subtilis 168 [6] = assay: as above
Outline: as §1

S. aureus Newman [7] = assay: as above
Outline: as §1

S. pneumoniae D39V [8] = assay: Bliss interaction score (quartile over a dose matrix) (fitness difference); higher = more antagonism (negative = synergy)
Outline: (§2)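 Each plate was normalised to the robust mean of its own no-drug wells, using OD595 at entry into stationary phase, with values capped at 1. This normalised growth is the fitness value. The Bliss score is the difference between observed and product-expected fitness, with single-drug fitness inferred from the combination data and quartiles taken over technical, biological and donor/recipient replicates.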

S. aureus DSM 20231 [9] = assay: as above
Outline: as §2

B. subtilis 168 [10] = assay: as above
Outline: as §2

S. aureus Newman [11] = assay: as above
Outline: as §2

[12] = first compound 0.0075 µg/mL, partner 1 µg/mL
[13] = first compound 0.0075 µg/mL, partner 2 µg/mL
[14] = first compound 0.0075 µg/mL, partner 4 µg/mL
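Throughout, for Bliss interaction score (quartile over a dose matrix): first quartile when negative (synergy) and third quartile when positive (antagonism).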

COc1c(N2C[C@@H]3CCCN[C@@H]3C2)c(F)cc2c(=O)c(C(=O)O)cn(C3CC3)c12 [Moxifloxacin]
MIC (S. pneumoniae D39V [1]): 0.25 µg/mL (≈ 0.623 µM)
MIC (S. aureus DSM 20231 [2]): 0.033 µg/mL (≈ 0.0822 µM)
MIC (S. aureus Newman [3]): 0.033 µg/mL (≈ 0.0822 µM)
fitness (S. pneumoniae D39V [4]; 0.0037 µg/mL): 0.9
fitness (S. pneumoniae D39V [4]; 0.0075 µg/mL): 0.916
fitness (S. pneumoniae D39V [4]; 0.015 µg/mL): 0.862
fitness (S. pneumoniae D39V [4]; 0.0312 µg/mL): 0.134
fitness (S. pneumoniae D39V [4]; 0.0625 µg/mL): 0.088
fitness (S. pneumoniae D39V [4]; 0.125 µg/mL): 0.0638
fitness (S. aureus DSM 20231 [5]; 0.0075 µg/mL): 0.888
fitness (S. aureus DSM 20231 [5]; 0.015 µg/mL): 0.824
fitness (S. aureus DSM 20231 [5]; 0.03 µg/mL): 0.665
fitness (B. subtilis 168 [6]; 0.0312 µg/mL): 0.0397
fitness (B. subtilis 168 [6]; 0.0625 µg/mL): 0.0388
fitness (B. subtilis 168 [6]; 0.125 µg/mL): 0.0181
fitness (B. subtilis 168 [6]; 2 µg/mL): 0.0291
fitness (B. subtilis 168 [6]; 4 µg/mL): 0.0224
fitness (B. subtilis 168 [6]; 8 µg/mL): 0.0114
fitness (S. aureus Newman [7]; 0.0075 µg/mL): 0.748
fitness (S. aureus Newman [7]; 0.015 µg/mL): 0.642
fitness (S. aureus Newman [7]; 0.03 µg/mL): 0.0899

COc1c(N2C[C@@H]3CCCN[C@@H]3C2)c(F)cc2c(=O)c(C(=O)O)cn(C3CC3)c12 [Moxifloxacin] + Cc1cc(NS(=O)(=O)c2ccc(N)cc2)no1 [Sulfamethoxazol]
fitness (S. pneumoniae D39V [4]; first compound 0.0037 µg/mL, partner 1 µg/mL, one replicate): 0.897
fitness (S. pneumoniae D39V [4]; first compound 0.0037 µg/mL, partner 2 µg/mL, one replicate): 0.856
fitness (S. pneumoniae D39V [4]; first compound 0.0037 µg/mL, partner 4 µg/mL, one replicate): 0.797
fitness (S. pneumoniae D39V [4]; first compound 0.005 µg/mL, partner 1 µg/mL): 0.944
fitness (S. pneumoniae D39V [4]; first compound 0.005 µg/mL, partner 2 µg/mL): 0.969
fitness (S. pneumoniae D39V [4]; first compound 0.005 µg/mL, partner 4 µg/mL): 0.958
fitness (S. pneumoniae D39V [4]; first compound 0.0075 µg/mL, partner 1 µg/mL, one replicate): 0.869
fitness (S. pneumoniae D39V [4]; first compound 0.0075 µg/mL, partner 2 µg/mL, one replicate): 0.857
fitness (S. pneumoniae D39V [4]; first compound 0.0075 µg/mL, partner 4 µg/mL, one replicate): 0.797
fitness (S. pneumoniae D39V [4]; first compound 0.01 µg/mL, partner 1 µg/mL): 0.949
fitness (S. pneumoniae D39V [4]; first compound 0.01 µg/mL, partner 2 µg/mL): 0.955
fitness (S. pneumoniae D39V [4]; first compound 0.01 µg/mL, partner 4 µg/mL): 0.987
fitness (S. pneumoniae D39V [4]; first compound 0.015 µg/mL, partner 1 µg/mL, one replicate): 0.842
fitness (S. pneumoniae D39V [4]; first compound 0.015 µg/mL, partner 2 µg/mL, one replicate): 0.828
fitness (S. pneumoniae D39V [4]; first compound 0.015 µg/mL, partner 4 µg/mL, one replicate): 0.79
fitness (S. pneumoniae D39V [4]; first compound 0.02 µg/mL, partner 1 µg/mL): 0.894
fitness (S. pneumoniae D39V [4]; first compound 0.02 µg/mL, partner 2 µg/mL): 0.912
fitness (S. pneumoniae D39V [4]; first compound 0.02 µg/mL, partner 4 µg/mL): 0.926
fitness (S. aureus DSM 20231 [5]; [12]): 0.78
fitness (S. aureus DSM 20231 [5]; [13]): 0.829
fitness (S. aureus DSM 20231 [5]; [14]): 0.765
fitness (S. aureus DSM 20231 [5]; first compound 0.015 µg/mL, partner 1 µg/mL): 0.69
fitness (S. aureus DSM 20231 [5]; first compound 0.015 µg/mL, partner 2 µg/mL): 0.724
fitness (S. aureus DSM 20231 [5]; first compound 0.015 µg/mL, partner 4 µg/mL): 0.76
fitness (S. aureus DSM 20231 [5]; first compound 0.03 µg/mL, partner 1 µg/mL): 0.586
fitness (S. aureus DSM 20231 [5]; first compound 0.03 µg/mL, partner 2 µg/mL): 0.682
fitness (S. aureus DSM 20231 [5]; first compound 0.03 µg/mL, partner 4 µg/mL): 0.692
fitness (S. aureus DSM 20231 [5]; first compound 0.06 µg/mL, partner 1 µg/mL, one replicate): 0.669
fitness (S. aureus DSM 20231 [5]; first compound 0.06 µg/mL, partner 2 µg/mL, one replicate): 0.655
fitness (S. aureus DSM 20231 [5]; first compound 0.06 µg/mL, partner 4 µg/mL, one replicate): 0.655
fitness (S. aureus DSM 20231 [5]; first compound 0.12 µg/mL, partner 1 µg/mL, one replicate): 0.445
fitness (S. aureus DSM 20231 [5]; first compound 0.12 µg/mL, partner 2 µg/mL, one replicate): 0.44
fitness (S. aureus DSM 20231 [5]; first compound 0.12 µg/mL, partner 4 µg/mL, one replicate): 0.431
fitness (B. subtilis 168 [6]; first compound 0.0312 µg/mL, partner 0.5 µg/mL, one replicate): 0.0261
fitness (B. subtilis 168 [6]; first compound 0.0312 µg/mL, partner 1 µg/mL): 0.0226
fitness (B. subtilis 168 [6]; first compound 0.0312 µg/mL, partner 2 µg/mL): 0.0442
fitness (B. subtilis 168 [6]; first compound 0.0312 µg/mL, partner 4 µg/mL): 0.0303
fitness (B. subtilis 168 [6]; first compound 0.0625 µg/mL, partner 0.5 µg/mL, one replicate): 0.034
fitness (B. subtilis 168 [6]; first compound 0.0625 µg/mL, partner 1 µg/mL): 0.0292
fitness (B. subtilis 168 [6]; first compound 0.0625 µg/mL, partner 2 µg/mL): 0.0328
fitness (B. subtilis 168 [6]; first compound 0.0625 µg/mL, partner 4 µg/mL): 0.0239
fitness (B. subtilis 168 [6]; first compound 0.125 µg/mL, partner 0.5 µg/mL, one replicate): 0.0283
fitness (B. subtilis 168 [6]; first compound 0.125 µg/mL, partner 1 µg/mL): 0.0176
fitness (B. subtilis 168 [6]; first compound 0.125 µg/mL, partner 2 µg/mL): 0.0212
fitness (B. subtilis 168 [6]; first compound 0.125 µg/mL, partner 4 µg/mL): 0.0185
fitness (B. subtilis 168 [6]; first compound 2 µg/mL, partner 1 µg/mL): 0.0112
fitness (B. subtilis 168 [6]; first compound 2 µg/mL, partner 2 µg/mL): 0.0253
fitness (B. subtilis 168 [6]; first compound 2 µg/mL, partner 4 µg/mL): 0.0113
fitness (B. subtilis 168 [6]; first compound 4 µg/mL, partner 1 µg/mL): 0.0152
fitness (B. subtilis 168 [6]; first compound 4 µg/mL, partner 2 µg/mL): 0.0241
fitness (B. subtilis 168 [6]; first compound 4 µg/mL, partner 4 µg/mL): 0.0125
fitness (B. subtilis 168 [6]; first compound 8 µg/mL, partner 1 µg/mL): 0.0212
fitness (B. subtilis 168 [6]; first compound 8 µg/mL, partner 2 µg/mL): 0.0227
fitness (B. subtilis 168 [6]; first compound 8 µg/mL, partner 4 µg/mL): 0.0093
fitness (S. aureus Newman [7]; [12]): 0.776
fitness (S. aureus Newman [7]; [13]): 0.795
fitness (S. aureus Newman [7]; [14]): 0.749
fitness (S. aureus Newman [7]; first compound 0.0075 µg/mL, partner 8 µg/mL, one replicate): 0.934
fitness (S. aureus Newman [7]; first compound 0.015 µg/mL, partner 8 µg/mL, one replicate): 0.887
fitness (S. aureus Newman [7]; first compound 0.03 µg/mL, partner 8 µg/mL, one replicate): 0.784
Bliss interaction score (S. pneumoniae D39V [8]): -0.0536
Bliss interaction score (S. aureus DSM 20231 [9]): -0.0783
Bliss interaction score (B. subtilis 168 [10]): -0.0331
Bliss interaction score (S. aureus Newman [11]): -0.071
